PubChem BioAssay AID1963861 (Molecular Pharmacology Branch, DTP, NCI, 2024)
pIC50: −log10 of the molar value.

Tested on: 885724-159-R-J1-PDC KRAS PDC multicell spheroid viability
Assay: Anticancer human tumor 885724-159-R-J1-PDC patient-derived pancreatic adenocarcinoma cell line growth inhibition [KRAS2]
Conditions: for pIC50: curve of first compound; for viability, T/C: stronger effect = lower value
Outline: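 KRAS-mutant tumor cells were grown as spheroids with HUVEC endothelial cells and human MSCs as stroma. Targeted agents were tested alone and with KRAS pathway inhibitors. Doses started at or near clinical Cmax, or 10 microM, descending half-log.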

[1] = second compound 0.1 µM, first compound 0.000316 µM
[2] = second compound 0.1 µM, first compound 0.001 µM
[3] = second compound 0.1 µM, first compound 0.00316 µM
[4] = second compound 0.1 µM, first compound 0.01 µM
[5] = second compound 0.1 µM, first compound 0.0316 µM
[6] = second compound 0.316 µM, first compound 0.000316 µM
[7] = second compound 0.316 µM, first compound 0.001 µM
[8] = second compound 0.316 µM, first compound 0.00316 µM
[9] = second compound 0.316 µM, first compound 0.01 µM
[10] = second compound 0.316 µM, first compound 0.0316 µM
[11] = second compound 1 µM, first compound 0.000316 µM
[12] = second compound 1 µM, first compound 0.001 µM
[13] = second compound 1 µM, first compound 0.00316 µM
[14] = second compound 1 µM, first compound 0.01 µM
[15] = second compound 1 µM, first compound 0.0316 µM
[16] = second compound 3.16 µM, first compound 0.000316 µM
[17] = second compound 3.16 µM, first compound 0.001 µM
[18] = second compound 3.16 µM, first compound 0.00316 µM
[19] = second compound 3.16 µM, first compound 0.01 µM
[20] = second compound 3.16 µM, first compound 0.0316 µM
[21] = second compound 10 µM, first compound 0.000316 µM
[22] = second compound 10 µM, first compound 0.001 µM
[23] = second compound 10 µM, first compound 0.00316 µM
[24] = second compound 10 µM, first compound 0.01 µM
[25] = second compound 10 µM, first compound 0.0316 µM
[26] = second compound 0.1 µM, first compound 0.1 µM
[27] = second compound 0.316 µM, first compound 0.1 µM
[28] = second compound 1 µM, first compound 0.1 µM
[29] = second compound 3.16 µM, first compound 0.1 µM
[30] = second compound 10 µM, first compound 0.1 µM
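Also: spheroids exposed to agents for 7 days before readout.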

## CC(=O)Nc1cccc(-n2c(=O)n(C3CC3)c(=O)c3c(Nc4ccc(I)cc4F)n(C)c(=O)c(C)c32)c1 + CNCc1ccccc1-c1csc(C(C)Nc2nc(C)nc3cc(OC)c(OC)cc23)c1
Second compound 0.1 µM
  pIC50: 9.05
Second compound 0.316 µM
  pIC50: 9.08
Second compound 1 µM
  pIC50: 9.28
Second compound 3.16 µM
  pIC50: > 10.00
Second compound 10 µM
  pIC50: > 10.00
Second compound 0.1 µM, first compound 0.0001 µM
  viability, T/C: 90.3%
[1]
  viability, T/C: 71.2%
[2]
  viability, T/C: 43.9%
[3]
  viability, T/C: 34.7%
[4]
  viability, T/C: 24.7%
[5]
  viability, T/C: 16.2%
Second compound 0.316 µM, first compound 0.0001 µM
  viability, T/C: 90.4%
[6]
  viability, T/C: 70.2%
[7]
  viability, T/C: 43.9%
[8]
  viability, T/C: 30.3%
[9]
  viability, T/C: 20.5%
[10]
  viability, T/C: 12.9%
Second compound 1 µM, first compound 0.0001 µM
  viability, T/C: 90.8%
[11]
  viability, T/C: 63.7%
[12]
  viability, T/C: 30.5%
[13]
  viability, T/C: 20.6%
[14]
  viability, T/C: 6.76%
[15]
  viability, T/C: 1.59%
Second compound 3.16 µM, first compound 0.0001 µM
  viability, T/C: 1.26%
[16]
  viability, T/C: 0.83%
[17]
  viability, T/C: 0.53%
[18]
  viability, T/C: 0.68%
[19]
  viability, T/C: 0.79%
[20]
  viability, T/C: 1.69%
Second compound 10 µM, first compound 0.0001 µM
  viability, T/C: 0.21%
[21]
  viability, T/C: 0.24%
[22]
  viability, T/C: 0.25%
[23]
  viability, T/C: 0.37%
[24]
  viability, T/C: 0.34%
[25]
  viability, T/C: 0.69%

## CC(C)n1nc(-c2ccc3oc(N)nc3c2)c2c(N)ncnc21 + CNCc1ccccc1-c1csc(C(C)Nc2nc(C)nc3cc(OC)c(OC)cc23)c1
Second compound 0.1 µM
  pIC50: < 7.00
Second compound 0.316 µM
  pIC50: 7.38
Second compound 1 µM
  pIC50: 7.23
Second compound 3.16 µM
  pIC50: > 9.50
Second compound 10 µM
  pIC50: > 9.50
[1]
  viability, T/C: 87%
[2]
  viability, T/C: 81.1%
[3]
  viability, T/C: 73.6%
[4]
  viability, T/C: 65%
[5]
  viability, T/C: 54.6%
[26]
  viability, T/C: 52.4%
[6]
  viability, T/C: 100%
[7]
  viability, T/C: 75.3%
[8]
  viability, T/C: 70.7%
[9]
  viability, T/C: 60.6%
[10]
  viability, T/C: 50.2%
[27]
  viability, T/C: 45.6%
[11]
  viability, T/C: 85.8%
[12]
  viability, T/C: 76.2%
[13]
  viability, T/C: 69.2%
[14]
  viability, T/C: 60.6%
[15]
  viability, T/C: 50.2%
[28]
  viability, T/C: 48.5%
[16]
  viability, T/C: 2.37%
[17]
  viability, T/C: 11.2%
[18]
  viability, T/C: 2.11%
[19]
  viability, T/C: 1.36%
[20]
  viability, T/C: 3.15%
[29]
  viability, T/C: 1.32%
[21]
  viability, T/C: 0.19%
[22]
  viability, T/C: 0.31%
[23]
  viability, T/C: 0.18%
[24]
  viability, T/C: 0.18%
[25]
  viability, T/C: 0.23%
[30]
  viability, T/C: 0.34%

## CC1(C)CCC(CN2CCN(c3ccc(C(=O)NS(=O)(=O)c4ccc(NCC5CCOCC5)c([N+](=O)[O-])c4)c(Oc4cnc5[nH]ccc5c4)c3)CC2)=C(c2ccc(Cl)cc2)C1 + CNCc1ccccc1-c1csc(C(C)Nc2nc(C)nc3cc(OC)c(OC)cc23)c1
Second compound 0.1 µM
  pIC50: 5.17
Second compound 0.316 µM
  pIC50: 5.24
Second compound 1 µM
  pIC50: 5.28
Second compound 3.16 µM
  pIC50: > 7.50
Second compound 10 µM
  pIC50: > 7.50
[5]
  viability, T/C: 96.3%
[26]
  viability, T/C: 89.6%
Second compound 0.1 µM, first compound 0.316 µM
  viability, T/C: 88.8%
Second compound 0.1 µM, first compound 1 µM
  viability, T/C: 88.5%
Second compound 0.1 µM, first compound 3.16 µM
  viability, T/C: 82.7%
Second compound 0.1 µM, first compound 10 µM
  viability, T/C: 32.6%
[10]
  viability, T/C: 86.6%
[27]
  viability, T/C: 90.3%
Second compound 0.316 µM, first compound 0.316 µM
  viability, T/C: 85.7%
Second compound 0.316 µM, first compound 1 µM
  viability, T/C: 91%
Second compound 0.316 µM, first compound 3.16 µM
  viability, T/C: 82.4%
Second compound 0.316 µM, first compound 10 µM
  viability, T/C: 21%
[15]
  viability, T/C: 101%
[28]
  viability, T/C: 93.6%
Second compound 1 µM, first compound 0.316 µM
  viability, T/C: 89.1%
Second compound 1 µM, first compound 1 µM
  viability, T/C: 82.3%
Second compound 1 µM, first compound 3.16 µM
  viability, T/C: 82.9%
Second compound 1 µM, first compound 10 µM
  viability, T/C: 12.1%
[20]
  viability, T/C: 1.12%
[29]
  viability, T/C: 0.55%
Second compound 3.16 µM, first compound 0.316 µM
  viability, T/C: 0.55%
Second compound 3.16 µM, first compound 1 µM
  viability, T/C: 0.79%
Second compound 3.16 µM, first compound 3.16 µM
  viability, T/C: 0.62%
Second compound 3.16 µM, first compound 10 µM
  viability, T/C: 1.03%
[25]
  viability, T/C: 0.42%
[30]
  viability, T/C: 1.23%
Second compound 10 µM, first compound 0.316 µM
  viability, T/C: 0.37%
Second compound 10 µM, first compound 1 µM
  viability, T/C: 0.2%
Second compound 10 µM, first compound 3.16 µM
  viability, T/C: 0.17%
Second compound 10 µM, first compound 10 µM
  viability, T/C: 0.2%
